According to the NIST ThermoML archive (doi:10.1021/je060271a):

Conditions: 283.14 K, Liquid, Vibrating tube method

CCCCCCC(=O)OCC(COC(=O)CCCCCC)(COC(=O)CCCCCC)COC(=O)CCCCCC [pentaerythritol tetraheptanoate]
Conditions	mass density [kg/m3]
13797 kPa	993.7
13815 kPa	993.7
13832 kPa	993.7
13850 kPa	993.7
13872 kPa	993.7
13889 kPa	993.7
13907 kPa	993.7
13928 kPa	993.7
13946 kPa	993.7
13964 kPa	993.7
13985 kPa	993.7
14003 kPa	993.7
14021 kPa	993.7
14043 kPa	993.7
14061 kPa	993.8
14079 kPa	993.9
14098 kPa	993.8
14120 kPa	993.8
14138 kPa	993.9
14160 kPa	993.9
14178 kPa	993.9
14197 kPa	993.9
14216 kPa	993.8
14238 kPa	993.9
14256 kPa	993.9
14278 kPa	993.9
14297 kPa	993.9
14316 kPa	993.9
14339 kPa	994
14358 kPa	994
14377 kPa	993.9
14396 kPa	993.9
14419 kPa	993.9
14438 kPa	994
14458 kPa	994
14480 kPa	994
14500 kPa	994
14523 kPa	994
14542 kPa	994.1
14561 kPa	994
14585 kPa	994.1
14605 kPa	994.1
14625 kPa	994.1
14645 kPa	994
14668 kPa	994.1
14688 kPa	994.1
14708 kPa	994.1
14733 kPa	994.2
14752 kPa	994.2
14772 kPa	994.3
14797 kPa	994
14817 kPa	994.3
14838 kPa	994.2
14863 kPa	994.2
14884 kPa	994.2
14905 kPa	994.2
14926 kPa	994.3
14946 kPa	994.2
14971 kPa	994.3
14991 kPa	994.2
15016 kPa	994.3
15037 kPa	994.2
15057 kPa	994.4
15083 kPa	994.4
15104 kPa	994.4
15125 kPa	994.4
15151 kPa	994.5
15173 kPa	994.4
15194 kPa	994.3
15216 kPa	994.4
15242 kPa	994.5
15263 kPa	994.4
15285 kPa	994.5
15310 kPa	994.4
15332 kPa	994.4
15354 kPa	994.5
15567 kPa	994.5
15589 kPa	994.5
15616 kPa	994.6
15638 kPa	994.6
15661 kPa	994.7
15689 kPa	994.7
15711 kPa	994.7
15734 kPa	994.7
15762 kPa	994.7
15785 kPa	994.6
15808 kPa	994.8
15836 kPa	994.7
15860 kPa	994.8
15883 kPa	994.8
15911 kPa	994.9
15934 kPa	994.7
15958 kPa	994.8
15982 kPa	994.8
16010 kPa	994.9
16034 kPa	994.8
16062 kPa	995
16087 kPa	995
16111 kPa	994.9
16139 kPa	994.9
16164 kPa	994.9
16188 kPa	994.8
16212 kPa	994.9
16242 kPa	994.9
16266 kPa	995.1
16291 kPa	994.9
16321 kPa	994.9
16345 kPa	995
16375 kPa	995
16400 kPa	995
16425 kPa	995.1
16450 kPa	995.1
16481 kPa	995
16506 kPa	995.1
16531 kPa	995.1
16587 kPa	995.1
16617 kPa	995.2
16669 kPa	995.1
16725 kPa	995.2
16752 kPa	995.2
16779 kPa	995.3
16810 kPa	995.3
16836 kPa	995.2
16868 kPa	995.2
16894 kPa	995.4
16921 kPa	995.3
16953 kPa	995.3
16980 kPa	995.4
17007 kPa	995.4
17035 kPa	995.4
17068 kPa	995.4
17095 kPa	995.5
17124 kPa	995.4
17152 kPa	995.4
17180 kPa	995.5
17214 kPa	995.3
17241 kPa	995.5
17269 kPa	995.5
17363 kPa	995.5
17449 kPa	995.6
17484 kPa	995.7
17513 kPa	995.5
17543 kPa	995.7
17572 kPa	995.6
17607 kPa	995.7
17636 kPa	995.8
17666 kPa	995.6
17700 kPa	995.7
17729 kPa	995.8
17759 kPa	995.8
17794 kPa	995.8
17824 kPa	995.7
17854 kPa	995.8
17890 kPa	995.9
17920 kPa	995.8
17950 kPa	995.9
17986 kPa	995.8
18017 kPa	995.9
18048 kPa	996
18085 kPa	995.9
18116 kPa	995.9
18147 kPa	995.9
18184 kPa	995.9
18215 kPa	996
18247 kPa	996
18278 kPa	996
18316 kPa	995.9
18348 kPa	996
18380 kPa	996.1
18419 kPa	996.1
18450 kPa	996.2
18489 kPa	996.2
18522 kPa	996.1
18554 kPa	996.1
18586 kPa	996.1
18625 kPa	996.3
18658 kPa	996.3
18697 kPa	996.3
18731 kPa	996.2
18764 kPa	996.3
18805 kPa	996.3
18839 kPa	996.3
18873 kPa	996.3
18908 kPa	996.4
18950 kPa	996.4
18986 kPa	996.4
19030 kPa	996.4
19067 kPa	996.3
19105 kPa	996.5
19144 kPa	996.5
19165 kPa	996.5
19176 kPa	996.5
19199 kPa	996.5
19220 kPa	996.4
19241 kPa	996.6
19262 kPa	996.5
19288 kPa	996.7
19308 kPa	996.5
19333 kPa	996.6
19354 kPa	996.5
19376 kPa	996.7
19396 kPa	996.7
19422 kPa	996.6
19443 kPa	996.8
19465 kPa	996.7
19491 kPa	996.7
19512 kPa	996.7
19538 kPa	996.8
19560 kPa	996.7
19582 kPa	996.6
19604 kPa	996.8
19630 kPa	996.7
19652 kPa	996.7
19675 kPa	996.7
19697 kPa	996.7
19746 kPa	996.8
19769 kPa	996.8
19796 kPa	996.9
19818 kPa	996.8
19841 kPa	996.8
19863 kPa	996.9
19890 kPa	996.9
19912 kPa	996.9
